Measurements published in patent publication US8969380B2, “Secondary 8-hydroxyquinoline-7-carboxamide derivatives for use as antifungal agents” (Polichem SA, priority 2009, dated 2015).
Values after ≈ are worked out from the molar mass of the structure shown.

How the values were obtained:
[1] = test system: Trichophyton Rubrum (ATCC 28188); experiment: Broth micro-dilution susceptibility test (MIC); format: cell-based; conditions: ATCC28188, 120 h, geometric mean of two single experiments, five days at 35° C., read-out: MIC Trycophyton Rubrum ATCC 28188
Experimental: (§1) Trichophyton Rubrum (ATCC 28188, PBI International); Trichophyton Mentagrophytes (ATCC 9533, PBI International); Aspergillus Niger (ATCC 16404, PBI International); Scopulariopsis Brevicaulis (ATCC 36840, DSMZ); Candida Albicans (ATCC 90028, PBI International); Candida Glabrata (ATCC 90030, DSMZ).
(§2) Strains were prepared from freeze-dried ampoules or freeze-dried pellets. An isolation of the suspensions was made on Potato Dextrose Agar (PDA) to test the strains purity. A strains' massive growth was then made streaking microbial suspensions on PDA plates.
(§3) Incubation was at 30° C. for 48-72 Hours (Candida yeasts) and for 7-10 days (filamentous fungi).
(§4) The yeasts' colonies and the filamentous fungi's conidia were harvested with 3-5 mL of RPMI 1640+50% glycerol and the aliquots frozen at −80° C.
(§5) Compounds' minimal inhibition concentration (MIC) was determined through broth micro-dilution susceptibility test using a method developed in agreement with the National Committee for Clinical Laboratory Standards (NCCLS) (National Committee for Clinical Laboratory Standards. Reference Method for Broth Dilution Antifungal Susceptibility Testing of Yeasts; Approved standard-Second Edition M27-A2. 2002; Vol. 22, No. 15) (National Committee for Clinical Laboratory Standards. Reference Method for Broth Dilution Antifungal Susceptibility Testing of Filamentous Fungi; Approved standard M38-A. 2002; Vol. 22, No. 16).
(§6) Assays were carried out in RPMI 1640 with L-glutamine medium buffered to pH 7 with 0.165M 3-(N-morpholino)propanesulfonic acid (MOPS) and 10M NaOH and supplemented with 18 g glucose/liter. The tests were performed using 96 well sterile plates (inoculum size of 1×10^5 CFU/mL). Compounds stock solutions were prepared at 12.8 mg/mL in 100% DMSO. A series of twofold dilutions were prepared in plate using RPMI 1640. Final concentrations ranged from 0.125 to 128 μg/mL at 1% DMSO.

[2] = test system: Candida Glabrata (ATCC 90030); experiment: Broth micro-dilution susceptibility test (MIC); format: cell-based; conditions: Nakaseomyces glabratus, ATCC90030; geometric mean of two single experiments; 48 h at 35° C.
Experimental: as §1, §2, §3, §4, §5, §6

[3] = test system: Scopulariopsis Brevicaulis (ATCC 36840); experiment: Broth micro-dilution susceptibility test (MIC); format: cell-based; conditions: ATCC36840, 120 h, geometric mean of two single experiments, five days at 35° C.
Experimental: as §1, §2, §3, §4, §5, §6

[4] = test system: Trichophyton Mentagrophytes (ATCC 9533); experiment: Broth micro-dilution susceptibility test (MIC); format: cell-based; conditions: ATCC9533, 120 h, geometric mean of two single experiments, five days at 35° C., read-out: MIC Tricophyton Mentagrophytes ATCC 9533
Experimental: as §1, §2, §3, §4, §5, §6

[5] = test system: Aspergillus Niger (ATCC 16404); experiment: Broth micro-dilution susceptibility test (MIC); format: cell-based; conditions: ATCC16404, 120 h, geometric mean of two single experiments, five days at 35° C.
Experimental: as §1, §2, §3, §4, §5, §6

[6] = test system: Candida Albicans (ATCC 90028); experiment: Broth micro-dilution susceptibility test (MIC); format: cell-based; conditions: ATCC90028, geometric mean of two single experiments, 48 h at 35° C.
Experimental: as §1, §2, §3, §4, §5, §6

[7] = test system: 6 strains tested, including yeasts, dermatophytes and molds; experiment: Spectrum of antifungal activity over the 6 strains tested; format: cell-based; conditions: 6 strains: yeasts
Experimental: as §1, §5, §6

[8] = test system: Candida Glabrata (ATCC 90030); experiment: Assessment of the mechanism of action: antifungal activity with or without 100 μM Fe3+; format: cell-based; conditions: 100 μM FeCl3 in the test medium, OD at 540 nm
Experimental: To verify if the compounds mechanism of action is the chelation of iron ions, the MIC determination with Candida glabrata (ATCC 90030) strain was performed by the addition of excessive iron ions (100 μM FeCl3) in the test medium. The viability of cells exposed to drugs, with or without the metal ion Fe^3+, was evaluated by the OD measure at 540 nm.
The potency of compounds described in Example 3, 4, 11 12, E8 and NiK-29298 were evaluated on Candida glabrata in presence and in absence of 100 μM (100 micromoles) Fe^3+.
In all figures, the lines and dots represent the percent inhibition of the fungal growth (in ordinate) by adding different concentrations of antifungal agents (in abscissa). Blue lines and dots are the experiments performed without iron supplementation, while red lines and dots represent the results of the experiments performed in presence of 100 μM Fe^3+. […] Conversely, Fe^3+ has no effect on amphotericin, an antifungal agent known in the art to have a mechanism of action different from that of ciclopirox.

invasive aspergillosis = conditions: daily administered at 10 mg/kg; cited from earlier work

SMILES	MIC [1]	MIC [2]	MIC [3]	MIC [4]	MIC [5]	MIC [6]	Spectrum of antifungal activity [7]	Effect of Fe3+ on the antifungal activity (percent inhibition of fungal growth) [8]	rates of nephrotoxicity (invasive aspergillosis)
O=C(NCc1cccs1)c1ccc2cccnc2c1O [Example 1, 8-Hydroxy-N-(thiophen-2-ylmethyl)quinoline-7-carboxamide]	0.5 µg/mL (≈ 1.76 µM)	1 µg/mL (≈ 3.52 µM)	0.25 µg/mL (≈ 0.879 µM)	0.5 µg/mL (≈ 1.76 µM)	0.25 µg/mL (≈ 0.879 µM)	1 µg/mL (≈ 3.52 µM)			
O=C(NCC1CCCCC1)c1ccc2cccnc2c1O [Example 2, 8-Hydroxy-N-(cyclohexylmethyl)quinoline-7-carboxamide]	1 µg/mL (≈ 3.52 µM)	1.41 µg/mL (≈ 4.96 µM)	2 µg/mL (≈ 7.03 µM)	0.71 µg/mL (≈ 2.5 µM)	0.35 µg/mL (≈ 1.23 µM)	1.41 µg/mL (≈ 4.96 µM)			
O=C(NCc1ccccc1)c1ccc2cccnc2c1O [Example 3, 8-Hydroxy-N-benzyl-quinoline-7-carboxamide]	0.35 µg/mL (≈ 1.26 µM)	1 µg/mL (≈ 3.59 µM)	0.35 µg/mL (≈ 1.26 µM)	0.18 µg/mL (≈ 0.647 µM)	0.18 µg/mL (≈ 0.647 µM)	1 µg/mL (≈ 3.59 µM)			
O=C(NCc1ccc(OCc2ccccc2)cc1)c1ccc2ncccc2c1 [Example E8]							active only on yeasts	not inhibited	
O=C(NCc1ccccc1)c1ccc2ncccc2c1 [NiK-29298]							active only on yeasts	not inhibited	
C[C@@H]1[C@H](O)[C@@H](C)/C=C/C=C/C=C/C=C/C=C/C=C/C=C/[C@H](O[C@@H]2O[C@H](C)[C@@H](O)[C@H](N)[C@@H]2O)C[C@@H]2O[C@](O)(C[C@@H](O)C[C@@H](O)[C@H](O)CC[C@@H](O)C[C@@H](O)CC(=O)O[C@H]1C)C[C@H](O)[C@H]2C(=O)O [amphotericin, Amphotericin B]								no effect	31%
Cc1cc(C2CCCCC2)n(O)c(=O)c1 [ciclopirox]								completely inhibited	

The next lines start with results.

MIC [1]	MIC [2]	MIC [3]	MIC [4]	MIC [5]	MIC [6]	SMILES	Spectrum of antifungal activity [7]	Effect of Fe3+ on the antifungal activity (percent inhibition of fungal growth) [8]	rates of nephrotoxicity (invasive aspergillosis)
0.71 µg/mL (≈ 2.27 µM)	1 µg/mL (≈ 3.2 µM)	0.71 µg/mL (≈ 2.27 µM)	0.5 µg/mL (≈ 1.6 µM)	0.35 µg/mL (≈ 1.12 µM)	2 µg/mL (≈ 6.39 µM)	O=C(NCc1ccc(Cl)cc1)c1ccc2cccnc2c1O [Example 4, 8-Hydroxy-N-(4-chlorobenzyl)quinoline-7-carboxamide]			
0.35 µg/mL (≈ 1.19 µM)	0.71 µg/mL (≈ 2.41 µM)	0.71 µg/mL (≈ 2.41 µM)	0.5 µg/mL (≈ 1.7 µM)	0.71 µg/mL (≈ 2.41 µM)	0.5 µg/mL (≈ 1.7 µM)	COc1ccc(NC(=O)c2ccc3cccnc3c2O)cc1 [Example 5, 8-Hydroxy-N-(4-methoxyphenyl)quinoline-7-carboxamide]			
1.41 µg/mL (≈ 4.07 µM)	1.41 µg/mL (≈ 4.07 µM)	1.41 µg/mL (≈ 4.07 µM)	1 µg/mL (≈ 2.89 µM)	0.5 µg/mL (≈ 1.44 µM)	1.41 µg/mL (≈ 4.07 µM)	O=C(NCc1ccc(C(F)(F)F)cc1)c1ccc2cccnc2c1O [Example 6, 8-Hydroxy-N-(4-(trifluoromethyl)benzyl)quinoline-7-carboxamide]			
0.5 µg/mL (≈ 1.89 µM)	1 µg/mL (≈ 3.78 µM)	2 µg/mL (≈ 7.57 µM)	0.71 µg/mL (≈ 2.69 µM)	0.5 µg/mL (≈ 1.89 µM)	0.5 µg/mL (≈ 1.89 µM)	O=C(Nc1ccccc1)c1ccc2cccnc2c1O [Example 7, 8-Hydroxy-N-phenyl-quinoline-7-carboxamide]			
0.71 µg/mL (≈ 2.41 µM)	2 µg/mL (≈ 6.8 µM)	1 µg/mL (≈ 3.4 µM)	0.5 µg/mL (≈ 1.7 µM)	0.25 µg/mL (≈ 0.849 µM)	2 µg/mL (≈ 6.8 µM)	O=C(NCc1ccccc1O)c1ccc2cccnc2c1O [Example 8, 8-Hydroxy-N-(2-hydroxybenzyl)quinoline-7-carboxamide]			
0.71 µg/mL (≈ 2.65 µM)	0.71 µg/mL (≈ 2.65 µM)	0.71 µg/mL (≈ 2.65 µM)	1 µg/mL (≈ 3.73 µM)	1 µg/mL (≈ 3.73 µM)	0.71 µg/mL (≈ 2.65 µM)	O=C(NCc1ccco1)c1ccc2cccnc2c1O [Example 9, 8-Hydroxy-N-(furan-2-ylmethyl)quinoline-7-carboxamide]			
2 µg/mL (≈ 7.16 µM)	11.3 µg/mL (≈ 40.5 µM)	1 µg/mL (≈ 3.58 µM)	2 µg/mL (≈ 7.16 µM)	1 µg/mL (≈ 3.58 µM)	4 µg/mL (≈ 14.3 µM)	O=C(NCc1cccnc1)c1ccc2cccnc2c1O [Example 10, 8-Hydroxy-N-(pyridin-3-ylmethyl)quinoline-7-carboxamide]			
1 µg/mL (≈ 3.24 µM)		1 µg/mL (≈ 3.24 µM)	1 µg/mL (≈ 3.24 µM)	1 µg/mL (≈ 3.24 µM)	2 µg/mL (≈ 6.49 µM)	COc1ccc(CNC(=O)c2ccc3cccnc3c2O)cc1 [Example 11, 8-Hydroxy-N-(4-methoxybenzyl)quinoline-7-carboxamide]			
